We go through three compounds from patent publication US10912712B2, “Treatment of bleeding by non-invasive stimulation” (The Feinstein Institutes for Medical Research, priority 2004, dated 2021).

Entries after “also recorded” stand apart in the source; their conditions may differ.

In experiment [1] the test system is Male Balb/c Mice. Briefly: Bleed time after tail amputation in mice, GTS-21 (Example 10). It counts as in vivo. Conditions: GTS-21 4 mg/kg IP vs PBS, 1 hour before, anesthetized, 2 mm of tail amputated. The protocol:
Male Balb/c mice (around 25 g) were injected (intraperitoneally (IP)) with cholinergic agonist GTS-21 (4 mg/kg in 125 µL PBS) or PBS (vehicle control, 125 µL). 1 hour later, mice were anesthetized with ketamine/xylazine (100 mg/kg/10 mg/kg, intraperitoneally).

The test system of experiment [2] is Male Balb/c Mice. Description: Effect of alpha-7 antagonist MLA given before nicotine on bleed time (Example 13). Format: in vivo. The protocol: Male Balb/c mice (around 25 g) were divided into three groups: A, B and C. Groups A and C were injected with the alpha-7 antagonist methyllycaconitine, (MLA; 4 mg/kg, IP, in 200 µL PBS), group B was injected with PBS (vehicle control, 125 µ1). 15 minutes later, Group A was injected with PBS (vehicle control, 125 µl) and groups B and C were injected with nicotine (0.3 mg/kg in 125 µL PBS). 30 minutes later, mice were anesthetized (ketamine [100 mg/kg, IP] and xylazine [10 mg/kg, IP]). After immersing tails in 37° C. saline for 5 minutes to normalize vasodilatory state, 2 mm of tail was amputated with a scalpel, and returned to the saline bath (modified from Nagashima et al., Journal of Clinical Investigation (109) 101-110, (2002); Snyder et al., Nature Medicine (5), 64-70, (1999).
Once bleeding stopped, animals were euthanized by CO2 asphyxiation. Data were recorded in seconds, and are presented as mean+/− SE. Student's t-test was used for statistical analysis.

As for `COc1ccc(/C=C2\CCCN=C2c2cccnc2)c(OC)c1` [GTS-21], the total bleeding time result with Male Balb/c Mice [1] is recorded as “significantly reduced the bleed time; also recorded: decrease in bleed time”. With `CCN1C[C@]2(COC(=O)c3ccccc3N3C(=O)C[C@H](C)C3=O)CC[C@H](OC)[C@@]34[C@@H]5C[C@H]6[C@H](OC)[C@@H]5[C@](O)(C[C@@H]6OC)[C@@](O)([C@@H](OC)[C@H]23)[C@@H]14` [MLA, methyllycaconitine], in the experiment on Male Balb/c Mice [2] (MLA 4 mg/kg IP 15 minutes before nicotine 0.3 mg/kg), the “effect on nicotine induced reduction of bleed time” value is “inhibited nicotine induced reduction of bleed time”. Take `CN1CCCC1c1cccnc1` (stereo not drawn) [nicotine]: in the experiment on Male Balb/c Mice [2] (nicotine 0.3 mg/kg after PBS pretreatment, 30 minutes later anesthetized, 2 mm of tail amputated), the total bleeding time entry was “reduction in bleed time”.
